What was measured:
[1] = tested on: maximal electroshock seizure; details: racemic form; reported in U.S. Pat. No. 4,379,165; cited from earlier work
[2] = in vivo; design: species or system mice; details: mouse, po
Description: (§1) The compounds were also evaluated for determining toxic potential. In determining toxic potential as manifested by neurological deficit, ataxia, or sedation, the "horizontal screen" (H.S.) was employed. This test is well accepted as a measure of impaired motor function in mice. The methodology was identical to that taught by Coughenour, et al., Pharmacology, Biochemistry and Behavior, 6, 351 (1977). For each compound, the ED50 was determined as the dose which caused one half of the animals to fail to reach the top of the screen. The compounds were administered to the mice in the same manner as described above for the electroshock assay 60 minutes before they were tested in the horizontal screen assay.

[3] = tested on: Cox standard strain albino male mice (extensor tonic convulsions); test: electroshock induced convulsion inhibition assay (E.S.); type: in vivo; details: for ED50: Mus musculus, po, 1 h, by gavage, 60 minutes before 0.1 second, 50 milliampere corneal electroshock, inhibition of extensor tonic convulsions in one half of mice
Description: (§2) In the electroshock induced convulsion inhibition assay (E.S.), the compound to be tested was dissolved in water (5%--sufficient hydrochloric acid was added for those compounds which were not isolated as a salt in order to effect dissolution) and administered by gavage to each of three Cox standard strain albino male mice (18-24 g.) at the dose level being investigated. Sixty minutes after compound administration, the mice were subjected to a 0.1 second, 50 milliampere electroshock through corneal electrodes. The animals were examined and evaluated immediately after the electroshock for the occurrence of clonic, flexor tonic, or extensor tonic convulsions, or death and the ED50 was determined for each compound as the dose which inhibited the occurrence of extensor tonic convulsions in one half of the animals immediately after the electroshock. For comparison, 18 milliamperes was usually sufficient to produce extensor tonic convulsions in about half of the control animals; at 50 milliamperes, almost all control animals (receiving vehicle only) died.

[4] = protective index (P.I.), ratio of horizontal screen ED50 over electroshock ED50; type: in vivo, mice; details: mouse, in vivo, po; mice, gavage; read-out: Protective Index (H.S. ED50 /E.S. ED50)
Description: as §2, §1
(§3) From the above two test systems, the protective index (P.I.) can be calculated as the ratio of the horizontal screen ED50 over the ED50 of the electroshock assay. Thus, a large P.I. is indicative of a broader therapeutic range. A large P.I. thus provides a wide margin of safety allowing greater flexibility in treating epilepsy and other convulsive disorders.

[5] = tested on: mice; test: as above; type: in vivo; details: enantiomers compared with each other or the racemate
Description: as §2, §1, §3

[6] = tested on: seizures in man; details: cited from earlier work

Row | Compound | protective index (P.I.), TD50 (Rotorod) to ED50 (maximal electroshock seizure) [1] | TD50 at 1 h [2] [mg/kg] | ED50 [3] [mg/kg] | selectivity ratio at 1 h [4] | protective index (in words) [5] | anticonvulsant potency (in words) ([3]; (S)-isomer compared with (R)-isomer and racemate) | plasma level at which seizures are controlled ([6]; Gilman, Goodman, and Gilman, 6th Ed.) [µg/mL] | plasma level at which ataxia is obvious [6] [ng/mL] | plasma level at which lethargy is apparent [6] | plasma level at which nystagmus is seen [6]
1 | CC(NC(=O)c1ccc(N)cc1)c1ccccc1 (racemic) [(R,S), (R,S)-4-amino-N-(1-phenylethyl)benzamide] | 9.48 | 105 | 12.5 | 8.4 | – | – | – | – | – | –
2 | C[C@@H](NC(=O)c1ccc(N)cc1)c1ccccc1 [(R), (R)-4-amino-N-(1-phenylethyl)benzamide] | – | 480 | 17.8 | 27 | increased protective index ratio | – | – | – | – | –
3 | C[C@H](NC(=O)c1ccc(N)cc1)c1ccccc1 [(S), (S)-4-amino-N-(1-phenylethyl)benzamide] | – | 141 | 10 | 14.1 | – | more potent as an anticonvulsant agent than either the (R)-isomer or the racemate | – | – | – | –
4 | O=C1NC(=O)C(c2ccccc2)(c2ccccc2)N1 [phenytoin] | – | – | – | – | – | – | ≥ 10 | 30000 | about 40 mcg./ml. | around 20 mcg./ml.
